Data taken from patent publication US20200325449A1, “COMPLEMENT INHIBITION FOR IMPROVING CELL VIABILITY” (THE CLEVELAND CLINIC FOUNDATION, priority 2016, published 2020).
“Also recorded” adds a separate entry of the source.

Experiments:
[1] = tested on: MSCs; test: In vivo damage of MSCs (BCECF release in plasma); parameters: species or system mice; details: BCECF-labeled MSCs infused via tail vein 10 min after s.c. heparin vs saline
Method: Measurement of in vivo damage of MSCs. In vivo MSC damage after infusion was also examined using a BCECF release assay. In brief, each mouse was injected subcutaneously with 500 U of heparin in saline or saline alone, then 1×10^6 MSCs labeled with BCECF were injected by the tail vein, then blood samples were collected after 0, 20, 40, and 60 min and released BCECF in the plasma measured on a SpectraMax Gemini XS (Molecular Devices, Sunnyvale, Calif.) as above.
To evaluate in vivo damage to MSCs with or without heparin painting, 0.5×10^6 heparin-painted or mock-painted MSCs were labeled with BCECF, then injected into the tail vein and blood sample collected and the plasma assayed for levels of released BCECF as above.

[2] = tested on: complement alternative pathway; test: Complement alternative pathway activation ex vivo assay (zymosan C3b deposition); assay type: in vivo; details: plasma of WT C57BL/6 mice 30 min after s.c. heparin 20 U/mouse vs saline
Method: (§1) Complement alternative pathway and classical pathway activation ex vivo assays. Mice were injected subcutaneously (s.c.) with 20 U of heparin (MP Biomedicals, Solon, Ohio) in saline or saline alone, then blood samples were collected 30 min later and immediately centrifuged for 5 min at 4° C. to collect the plasma. The activity of the complement alternative pathway was assessed using a zymosan C3b deposition assay and complement classical pathway activity was measured using an antibody-sensitized sheep erythrocytes (EshA) C3b deposition assay.

[3] = tested on: complement classical pathway; test: Complement classical pathway activation ex vivo assay (EshA C3b deposition); assay type: in vivo; details: plasma of WT C57BL/6 mice 30 min after s.c. heparin 20 U/mouse vs saline
Method: as §1

[4] = tested on: MSCs; test: In vitro damage of MSCs (BCECF release) after contact with serum; assay type: cell-based; details: MSCs cultured with Neu5AC (lower Neu5GC levels) vs without; 20% or 30% normal human serum
Method: Measurement of in vitro damage of MSCs. An established fluorescence dye release assay was used to assess MSC injury after contact with serum. In brief, 2×10^5 heparin-painted or mock-painted MSCs were first loaded by incubation for 30 min at 37° C. with 5 μM 2′,7′-bis-(2-carboxyethyl)-5-(and-6)-carboxyfluorescein acetoxymethyl ester (BCECF-AM) (Thermo Fisher Scientific™, Grand Island, N.Y.). After 3 washes, the BCECF-loaded MSCs were incubated for 30 min at 37° C. with 20 or 30% normal human serum in 100 μL of GVB++, then the cells were removed by centrifugation and released BCECF in the supernatant measured on a SpectraMax Gemini XS (Molecular Devices, Sunnyvale, Calif.) with excitation and emission wavelengths, respectively, of 485 nm and 538 nm. The MSC damage (percentage of BCECF release) was calculated as ([A−B]/[C−B])×100%, where A represents the mean experimental BCECF release, B the mean spontaneous BCECF release, and C the mean maximum BCECF release induced by incubating the cells with 0.1% Triton-X100.

[5] = tested on: human IgGs and IgMs on MSCs; test: MSC serum immunoglobulin binding assay; assay type: cell-based; details: MSCs cultured with Neu5AC, then pooled normal human serum
Method: MSC serum immunoglobulin binding assay. MSCs (0.5×10^6) cultured in the presence or absence of 3 mM of Neu5AC for a week were incubated for 30 min on ice with 30% pooled normal human serum in PBS. After washing, the cells were stained for cell surface-bound human IgGs and IgMs with 2 μg/ml of anti-human IgG or anti-human IgM antibodies (Jackson ImmunoResearch Laboratories, West Grove, Pa.) and examined by flow cytometry.

[6] = tested on: Neu5GC on MSCs; test: Neu5GC detection on MSCs; assay type: cell-based, human; details: MSCs cultured 7 days with Neu5AC in complete medium vs without
Method: Neu5GC detection on MSCs. This was performed as described previously by Ghaderi et al. In brief, after blocking with a 0.5% solution of fish skin gelatin (Sigma-Aldrich, St. Louis, Mo.), MSCs were incubated for 30 min on ice with 5 μg/ml of chicken anti-Neu5GC IgY or control IgY, then were washed, stained with 5 μg/ml of fluorescein isothiocyanate (FITC)-labeled anti-IgY antibody (Jackson ImmunoResearch Laboratories, West Grove, Pa.), and analyzed on a flow cytometer (BD FACSCalibur, San Jose, Calif.).

[7] = molecular target: T1, C3aR on neutrophils (Homo sapiens, UniProt Q16581); test: Neutrophil- and NHS-mediated MSC damage assay with C3aR antagonist; assay type: cell-based; details: HL60-derived neutrophils plus 30% NHS; antagonist alone, 10 μM
T1 construct: endogenous in cells; host or cells: human neutrophils from donor blood or differentiated from HL-60 cells
T1 sequence (Q16581 1-482): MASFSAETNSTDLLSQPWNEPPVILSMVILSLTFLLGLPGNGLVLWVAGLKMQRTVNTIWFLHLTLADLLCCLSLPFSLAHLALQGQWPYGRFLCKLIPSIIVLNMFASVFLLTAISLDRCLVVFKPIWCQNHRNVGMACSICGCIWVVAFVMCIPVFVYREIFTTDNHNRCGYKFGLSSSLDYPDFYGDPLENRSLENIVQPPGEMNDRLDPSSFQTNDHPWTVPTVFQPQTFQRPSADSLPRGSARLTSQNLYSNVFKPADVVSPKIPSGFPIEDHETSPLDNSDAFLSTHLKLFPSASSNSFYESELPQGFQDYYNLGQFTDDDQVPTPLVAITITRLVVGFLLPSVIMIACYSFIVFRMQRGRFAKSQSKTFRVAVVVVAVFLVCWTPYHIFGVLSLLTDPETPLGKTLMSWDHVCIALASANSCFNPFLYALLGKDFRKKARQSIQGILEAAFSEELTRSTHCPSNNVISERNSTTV
Method: Neutrophil-mediated MSC damage assay. Human neutrophils, either purified from healthy donor peripheral blood mononuclear cells (PBMCs) by Ficoll centrifugation (provided by the Hematopoietic Stem Cells Core Facility at Case Western Reserve University) or differentiated from the neutrophil progenitor cell line HL-60 (ATCC), were used. Collins et al., Proc Natl Acad Sci USA. 1978; 75:2458-62. In some experiments, neutrophil-mediated MSC damage was assessed using a similar BCECF-based assay to that already described. In brief, 2×10^4 MSCs were labeled with BCECF-AM as described above, then, after washing, the labeled MSC were incubated for 30 min at 37° C. with different numbers of neutrophils in the presence or absence of 30% NHS in 100 μl of GVB++ buffer with various concentrations of the neutrophil function inhibitor wortmannin that inhibits oxidative burst (Sue-A-Quan et al., Journal of cellular physiology. 1997; 172:94-108) (Cayman Chemical, Ann Arbor, Mich.) and released BCECF in the supernatants was measured as described. The percentage BCECF release (cell injury) was calculated as above. […]

[8] = tested on: neutrophils; details: Ehrengruber et al. 1994; cited from earlier work
[9] = tested on: primary neutrophils; test: Primary neutrophil-mediated MSC damage with purified C5a; assay type: cell-based; details: purified human C5a 50 ng/ml, no NHS, 4 h
Method: Neutrophil-mediated MSC damage assay. Human neutrophils, either purified from healthy donor peripheral blood mononuclear cells (PBMCs) by Ficoll centrifugation (provided by the Hematopoietic Stem Cells Core Facility at Case Western Reserve University) or differentiated from the neutrophil progenitor cell line HL-60 (ATCC), were used. Collins et al., Proc Natl Acad Sci USA. 1978; 75:2458-62. In some experiments, neutrophil-mediated MSC damage was assessed using a similar BCECF-based assay to that already described. In brief, 2×10^4 MSCs were labeled with BCECF-AM as described above, then, after washing, […] neutrophils in the presence or absence of 30% NHS in 100 μl of GVB++ buffer with various concentrations of the neutrophil function inhibitor wortmannin that inhibits oxidative burst (Sue-A-Quan et al., Journal of cellular physiology. 1997; 172:94-108) (Cayman Chemical, Ann Arbor, Mich.) and released BCECF in the supernatants was measured as described. The percentage BCECF release (cell injury) was calculated as above. In some experiments, a C5aR antagonist (JPE1375, Calbiochem, Billerica, Mass.)[27] or a C3aR antagonist (SB 290157, Calbiochem, Billerica, Mass.)[28] were added, both at […], to assess the role of C3aR and C5aR on neutrophils, while, in other experiments, NHS was omitted and 50 ng/ml of purified C5a (Complement technology Inc, Tyler, Tex.) added instead.

## heparin
[1]
  in vivo MSC cell damage (released BCECF in the plasma): protected
[2]
  C3 deposition on the surface of zymosan (alternative pathway): markedly reduced
[3]
  C3 deposition on the surface of EshA (classical pathway): markedly reduced

## CC(=O)N[C@H]1[C@H]([C@H](O)[C@H](O)CO)OC(O)(C(=O)O)C[C@@H]1O (stereo partly drawn) [Neu5AC, N-acetylneuraminic acid]
[4]
  complement-mediated MSC injury: less complement-mediated injury; also recorded: moderate reduction
[5]
  amount of bound IgM and IgG on MSCs: decrease
[6]
  Neu5GC levels on the MSC surface: significantly reduced

## NC(N)=NCCC[C@H](NC(=O)COCC(c1ccccc1)c1ccccc1)C(=O)O [C3aR antagonist]
[7]
  neutrophil-mediated MSC damage (BCECF release): no appreciable effect

B1: C5a: purified human C5a, anaphylatoxin (Complement technology Inc) (protein, UniProt P01031 678-751, looked up)
C5a anaphylatoxin: TLQKKIEEIAAKYKHSVVKKCCYDGACVNNDETCEQRAARISLGPRCIKAFTECCVVASQLRANISHKDMQLGR
modifications: C5a anaphylatoxin
[8]
  potency in activating neutrophils relative to C3a: 50-100 times
[9]
  MSC damage by primary neutrophils: significant MSC damage
